Laboratory results as given in patent US12329786B2, “Regulate gut microbiota to treat neurodegenerative disorders” (California Institute of Technology, priority 2016, dated 2025).

Biological target: T1, human αSyn (Homo sapiens, UniProt P37840)
T1 construct: made in house
Test: In vitro αSyn aggregation kinetics by ThT fluorescence
Type: biochemical
Details: range of concentrations, singly or in mixtures
Procedure: The ThT fluorescence signal was recorded using a microplate reader (Fluostar OPTIMA Microplate reader, BMG Labtech) with the excitation filter of 440±10 nm and an emission filter of 490±10 nm under intermittent shaking conditions at 37 °C. The kinetic curves were normalized to the fluorescence maxima and the time to reach half-maximum intensity quantified. For atomic force microscopy (AFM) imaging, samples were diluted with ultrapure water to […] total protein concentration, and […] were pipetted onto freshly cleaved mica and left to dry. The samples were imaged with a Modular scanning probe microscope NTEGRA Prima (NT-MDT) in intermittent contact mode in air using a gold-coated single crystal silicon cantilever (spring constant of ˜5.1 N/m) with a resonance frequency of ˜150 kHz. AFM images were processed with Gwyddion open source software.

SMILES | αSyn aggregation kinetics (ThT fluorescence, time to half-max)
CC(=O)[O-].[Na+] [sodium acetate] | did not expedite the aggregation of human αSyn in vitro
CCC(=O)[O-].[Na+] [sodium propionate] | did not expedite the aggregation of human αSyn in vitro
CCCC(=O)[O-].[Na+] [sodium butyrate] | did not expedite the aggregation of human αSyn in vitro
